Numbers after ± are expanded uncertainties.
Assay: relative permittivity at zero frequency (dimensionless)
Details: 101.33 kPa, Liquid, Parallel plate capacitor

SMILES	relative permittivity at zero frequency (245.65 K)	relative permittivity at zero frequency (248.15 K)	relative permittivity at zero frequency (250.65 K)	relative permittivity at zero frequency (253.15 K)	relative permittivity at zero frequency (255.65 K)	relative permittivity at zero frequency (258.15 K)	relative permittivity at zero frequency (260.65 K)	relative permittivity at zero frequency (263.15 K)	relative permittivity at zero frequency (265.65 K)	relative permittivity at zero frequency (268.15 K)	relative permittivity at zero frequency (270.65 K)	relative permittivity at zero frequency (273.15 K)	relative permittivity at zero frequency (275.65 K)	relative permittivity at zero frequency (278.15 K)	relative permittivity at zero frequency (298.15 K)	relative permittivity at zero frequency (303.15 K)	relative permittivity at zero frequency (305.65 K)	relative permittivity at zero frequency (308.15 K)	relative permittivity at zero frequency (310.65 K)	relative permittivity at zero frequency (313.15 K)	other results
O=C1CCCCCC1 [cycloheptanone]	15.35 ± 0.02	15.22 ± 0.02	15.09 ± 0.02	14.97 ± 0.02	14.85 ± 0.02	14.72 ± 0.02	14.57 ± 0.02	14.47 ± 0.02	14.36 ± 0.02	14.25 ± 0.02	14.14 ± 0.02	14.03 ± 0.02	13.91 ± 0.02	13.8 ± 0.02	12.92 ± 0.02	12.72 ± 0.02	12.62 ± 0.02	12.51 ± 0.02	12.41 ± 0.02	12.32 ± 0.02	relative permittivity at zero frequency (280.65 K): 13.69 ± 0.02; relative permittivity at zero frequency (283.15 K): 13.58 ± 0.02; relative permittivity at zero frequency (285.65 K): 13.46 ± 0.02; relative permittivity at zero frequency (288.15 K): 13.35 ± 0.02; relative permittivity at zero frequency (290.65 K): 13.25 ± 0.02; relative permittivity at zero frequency (293.15 K): 13.14 ± 0.02; relative permittivity at zero frequency (295.65 K): 13.03 ± 0.02; relative permittivity at zero frequency (300.65 K): 12.82 ± 0.02
O=C1CCC1 [cyclobutanone]	17.81 ± 0.02	17.66 ± 0.02	17.51 ± 0.02	17.37 ± 0.02	17.22 ± 0.02	17.07 ± 0.02	16.93 ± 0.02	16.79 ± 0.02	16.65 ± 0.02	16.51 ± 0.02	16.37 ± 0.02	16.24 ± 0.02	16.11 ± 0.02	15.98 ± 0.02	14.96 ± 0.02	14.72 ± 0.02	14.6 ± 0.02	14.48 ± 0.02	14.37 ± 0.02	14.25 ± 0.02	relative permittivity at zero frequency (243.15 K): 17.96 ± 0.02; relative permittivity at zero frequency (280.65 K): 15.85 ± 0.02; relative permittivity at zero frequency (283.15 K): 15.72 ± 0.02; relative permittivity at zero frequency (285.65 K): 15.58 ± 0.02; relative permittivity at zero frequency (288.15 K): 15.46 ± 0.02; relative permittivity at zero frequency (290.65 K): 15.33 ± 0.02; relative permittivity at zero frequency (293.15 K): 15.2 ± 0.02; relative permittivity at zero frequency (295.65 K): 15.08 ± 0.02; relative permittivity at zero frequency (300.65 K): 14.84 ± 0.02
O=C1CCCCC1 [cyclohexanone]	19.54 ± 0.02	19.34 ± 0.02	19.13 ± 0.02	18.93 ± 0.02	18.73 ± 0.02	18.54 ± 0.02	18.34 ± 0.02	18.15 ± 0.02	17.96 ± 0.02	17.78 ± 0.02	17.6 ± 0.02	17.42 ± 0.02	17.24 ± 0.02	17.07 ± 0.02	15.77 ± 0.02	15.46 ± 0.02	15.32 ± 0.02	15.17 ± 0.02	15.03 ± 0.02	14.89 ± 0.02	relative permittivity at zero frequency (243.15 K): 19.75 ± 0.02; relative permittivity at zero frequency (280.65 K): 16.9 ± 0.02; relative permittivity at zero frequency (283.15 K): 16.73 ± 0.02; relative permittivity at zero frequency (285.65 K): 16.56 ± 0.02; relative permittivity at zero frequency (288.15 K): 16.4 ± 0.02; relative permittivity at zero frequency (290.65 K): 16.24 ± 0.02; relative permittivity at zero frequency (293.15 K): 16.08 ± 0.02; relative permittivity at zero frequency (295.65 K): 15.92 ± 0.02; relative permittivity at zero frequency (300.65 K): 15.62 ± 0.02

Now from value to molecule, other results behind:

relative permittivity at zero frequency (245.65 K)	relative permittivity at zero frequency (248.15 K)	relative permittivity at zero frequency (250.65 K)	relative permittivity at zero frequency (253.15 K)	relative permittivity at zero frequency (255.65 K)	relative permittivity at zero frequency (258.15 K)	relative permittivity at zero frequency (260.65 K)	relative permittivity at zero frequency (263.15 K)	relative permittivity at zero frequency (265.65 K)	relative permittivity at zero frequency (268.15 K)	relative permittivity at zero frequency (270.65 K)	relative permittivity at zero frequency (273.15 K)	relative permittivity at zero frequency (275.65 K)	relative permittivity at zero frequency (278.15 K)	relative permittivity at zero frequency (298.15 K)	relative permittivity at zero frequency (303.15 K)	relative permittivity at zero frequency (305.65 K)	relative permittivity at zero frequency (308.15 K)	relative permittivity at zero frequency (310.65 K)	relative permittivity at zero frequency (313.15 K)	SMILES	other results
15.56 ± 0.04	15.46 ± 0.04	15.36 ± 0.04	15.26 ± 0.04	15.15 ± 0.04	15.05 ± 0.04	14.95 ± 0.04	14.85 ± 0.04	14.75 ± 0.04	14.65 ± 0.04	14.55 ± 0.04	14.45 ± 0.04	14.35 ± 0.04	14.25 ± 0.04	13.49 ± 0.04	13.3 ± 0.04	13.22 ± 0.04	13.13 ± 0.04	13.04 ± 0.04	12.95 ± 0.04	O=C1CCCC1 [cyclopentanone]	relative permittivity at zero frequency (243.15 K): 15.66 ± 0.04; relative permittivity at zero frequency (280.65 K): 14.15 ± 0.04; relative permittivity at zero frequency (283.15 K): 14.06 ± 0.04; relative permittivity at zero frequency (285.65 K): 13.96 ± 0.04; relative permittivity at zero frequency (288.15 K): 13.86 ± 0.04; relative permittivity at zero frequency (290.65 K): 13.77 ± 0.04; relative permittivity at zero frequency (293.15 K): 13.67 ± 0.04; relative permittivity at zero frequency (295.65 K): 13.58 ± 0.04; relative permittivity at zero frequency (300.65 K): 13.39 ± 0.04
														14.54 ± 0.04	14.22 ± 0.04	14.05 ± 0.04	13.89 ± 0.04	13.74 ± 0.04	13.57 ± 0.04	O=C1CCCCCCC1 [cyclooctanone]	relative permittivity at zero frequency (315.65 K): 13.42 ± 0.04; relative permittivity at zero frequency (318.15 K): 13.27 ± 0.04; relative permittivity at zero frequency (320.65 K): 13.14 ± 0.04; relative permittivity at zero frequency (323.15 K): 12.99 ± 0.04; relative permittivity at zero frequency (325.65 K): 12.85 ± 0.04; relative permittivity at zero frequency (328.15 K): 12.71 ± 0.04; relative permittivity at zero frequency (330.65 K): 12.58 ± 0.04; relative permittivity at zero frequency (333.15 K): 12.44 ± 0.04; relative permittivity at zero frequency (335.65 K): 12.3 ± 0.04; relative permittivity at zero frequency (338.15 K): 12.17 ± 0.04; relative permittivity at zero frequency (340.65 K): 12.04 ± 0.04; relative permittivity at zero frequency (343.15 K): 11.9 ± 0.04
